Values quoted from earlier work as cited in patent US7829688B2, “Peptides of CaV2.2 that inhibit pain” (The Board of Regents of the University of Texas System, priority 2004, dated 2010).

Molecular target: T1, N-type Ca2+ channels (Rattus norvegicus, UniProt Q02294, C1579L/DEL1236-1239/DEL415-415/E177G/INS1558ET)
T1 construct: host or cells: rat, in vivo (Malmberg and Yaksh, 1994, 1995)
Conditions: in vivo; cited from earlier work

T1 sequence (Q02294 whole entry, looked up, stated change not applied): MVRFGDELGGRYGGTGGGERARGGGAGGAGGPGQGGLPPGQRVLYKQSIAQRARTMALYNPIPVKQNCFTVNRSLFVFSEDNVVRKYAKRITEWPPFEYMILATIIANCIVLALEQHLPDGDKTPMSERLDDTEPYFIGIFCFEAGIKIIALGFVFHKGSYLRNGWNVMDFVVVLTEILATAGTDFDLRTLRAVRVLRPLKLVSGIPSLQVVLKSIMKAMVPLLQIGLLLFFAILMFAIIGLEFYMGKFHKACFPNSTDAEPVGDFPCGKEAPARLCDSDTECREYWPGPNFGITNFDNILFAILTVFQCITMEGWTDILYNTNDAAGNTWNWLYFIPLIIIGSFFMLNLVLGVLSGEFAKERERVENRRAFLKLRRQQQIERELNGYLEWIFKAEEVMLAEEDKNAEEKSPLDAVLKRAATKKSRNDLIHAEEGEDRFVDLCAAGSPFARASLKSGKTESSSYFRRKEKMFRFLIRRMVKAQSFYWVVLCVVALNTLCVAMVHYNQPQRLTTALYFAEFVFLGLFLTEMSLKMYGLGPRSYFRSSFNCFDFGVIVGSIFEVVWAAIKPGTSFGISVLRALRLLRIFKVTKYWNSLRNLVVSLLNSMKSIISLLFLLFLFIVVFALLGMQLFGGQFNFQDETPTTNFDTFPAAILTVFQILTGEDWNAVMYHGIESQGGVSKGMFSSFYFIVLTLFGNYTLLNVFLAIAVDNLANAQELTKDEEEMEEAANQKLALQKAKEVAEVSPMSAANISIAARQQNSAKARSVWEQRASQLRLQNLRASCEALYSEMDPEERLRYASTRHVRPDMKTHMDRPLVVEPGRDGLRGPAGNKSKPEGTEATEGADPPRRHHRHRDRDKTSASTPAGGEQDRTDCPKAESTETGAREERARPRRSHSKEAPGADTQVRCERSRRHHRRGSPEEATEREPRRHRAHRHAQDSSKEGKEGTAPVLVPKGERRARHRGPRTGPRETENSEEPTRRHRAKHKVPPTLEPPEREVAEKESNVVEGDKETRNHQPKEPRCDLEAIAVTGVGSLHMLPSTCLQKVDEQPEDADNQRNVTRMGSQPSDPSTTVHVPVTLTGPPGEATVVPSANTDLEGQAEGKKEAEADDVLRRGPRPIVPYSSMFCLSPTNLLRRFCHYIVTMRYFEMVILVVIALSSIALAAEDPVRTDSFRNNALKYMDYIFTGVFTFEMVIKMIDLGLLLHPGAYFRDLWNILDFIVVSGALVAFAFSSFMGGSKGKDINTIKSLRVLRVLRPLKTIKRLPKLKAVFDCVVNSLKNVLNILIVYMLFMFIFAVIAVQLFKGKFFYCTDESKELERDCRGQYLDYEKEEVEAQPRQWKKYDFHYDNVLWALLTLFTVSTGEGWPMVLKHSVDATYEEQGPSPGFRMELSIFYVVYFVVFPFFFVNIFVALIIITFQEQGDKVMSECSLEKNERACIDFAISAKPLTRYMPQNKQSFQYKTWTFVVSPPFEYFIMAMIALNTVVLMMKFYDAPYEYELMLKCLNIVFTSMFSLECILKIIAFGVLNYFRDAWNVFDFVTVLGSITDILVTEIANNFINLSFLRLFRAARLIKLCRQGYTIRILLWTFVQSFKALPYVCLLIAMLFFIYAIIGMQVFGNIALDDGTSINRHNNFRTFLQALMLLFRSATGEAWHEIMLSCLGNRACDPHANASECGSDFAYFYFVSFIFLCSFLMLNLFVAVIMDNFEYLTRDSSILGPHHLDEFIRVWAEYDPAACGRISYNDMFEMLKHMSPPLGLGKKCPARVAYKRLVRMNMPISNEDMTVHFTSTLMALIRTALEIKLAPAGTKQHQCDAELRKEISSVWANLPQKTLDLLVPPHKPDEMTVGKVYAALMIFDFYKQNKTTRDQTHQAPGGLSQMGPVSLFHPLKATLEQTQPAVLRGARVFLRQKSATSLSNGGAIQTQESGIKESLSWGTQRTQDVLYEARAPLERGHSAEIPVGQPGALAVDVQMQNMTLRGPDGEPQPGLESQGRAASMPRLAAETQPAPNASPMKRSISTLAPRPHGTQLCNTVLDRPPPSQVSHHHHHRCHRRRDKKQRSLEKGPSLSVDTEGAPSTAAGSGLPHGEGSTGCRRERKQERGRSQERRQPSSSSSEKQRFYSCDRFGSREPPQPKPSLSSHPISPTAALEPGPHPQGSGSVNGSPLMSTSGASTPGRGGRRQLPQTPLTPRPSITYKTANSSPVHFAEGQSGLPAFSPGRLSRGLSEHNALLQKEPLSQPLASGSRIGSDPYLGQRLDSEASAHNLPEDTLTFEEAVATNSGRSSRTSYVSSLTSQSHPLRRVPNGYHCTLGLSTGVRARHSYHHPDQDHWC

CSCC[C@@H]1NC(=O)[C@H](CC(C)C)NC(=O)[C@H](CCCNC(=N)N)NC(=O)[C@H](CO)NC(=O)[C@@H]2CSSC[C@@H]3NC(=O)[C@H](CO)NC(=O)CNC(=O)[C@H]([C@@H](C)O)NC(=O)[C@H](CSSC[C@H](N)C(=O)N[C@@H](CCCCN)C(=O)NCC(=O)N[C@@H](CCCCN)C(=O)NCC(=O)N[C@@H](C)C(=O)N[C@@H](CCCCN)C(=O)N2)NC(=O)[C@H](CSSC[C@@H](C(N)=O)NC(=O)[C@H](CCCCN)NC(=O)CNC(=O)[C@H](CO)NC(=O)[C@H](CCCNC(=N)N)NC3=O)NC(=O)[C@H](CC(=O)O)NC(=O)[C@H](Cc2ccc(O)cc2)NC1=O [SNX-111]
phase II formalin response: inhibited
